Test results published in patent US20060013804A1, “Modulation of stem cell differentiation by modulation of caspase-3 activity” (Ottawa Health Research Institute, priority 2002, published 2006).

Experiments:
Type in all cases: cell-based, mouse
PARP cleavage = PARP cleavage by Western blot in differentiating C2C12 myoblasts; conditions: C2C12, treated vs untreated
Protocol: (§1) Protein isolation, immunoblot analyses and immunocytochemistry. Cells from C2C12 and primary myoblast cultures were washed with ice-cold PBS and lysed on ice for 45 minutes in modified-RIPA buffer containing 20 mM NaF, 5 mM Na3VO4 and 10 μg/ml each of aprotinin, leupeptin, pepstatin and PMSF. Total protein was measured using the BCA protein assay (Pierce). Immunoblot analyses were performed as described (Creasy, C. L., & Chernoff, J. (1995) J. Biol. Chem. 270, 21695-21700) using antibodies for MST1, MKK6, p38γ, and p38α (Upstate), p38 and MEF2C (Cell Signaling Technologies), myogenin F5D and myosin heavy chain MF20 mAb (Developmental Hybridoma Bank), and active caspase-3 (Biovision).
Cells were fixed after 0, 2 and 4 days of differentiation and stained with the myosin heavy chain antibody MF20. […] In contrast, differentiation was more evident in cells that were incubated with caspase-8 inhibitor, z-LETD.fmk (FIG. 2B bottom panel, C).

[1] = system: endogenous kinases (MBP-directed cellular kinase activities); assay: Two-dimensional in-gel kinase assay of C2C12 lysates with MBP as substrate; conditions: C2C12, 12 h low serum treatment with inhibitor, vs untreated
Protocol: Samples were subjected to in-gel kinase analyses as previously described (Kolodziejczyk, S. M., et al., (1999) Curr Biol 9, 1203-1206) using MBP or Histone H1 as the target substrate. For two-dimension in-gel kinase analyses, samples were isoelectric focused in the first dimension using pH 4.0-7.0 IPG strips (BioRad). Second dimension analyses was performed using 10% SDS-PAGE containing Histone H1 as the in-gel substrate. Additional in-gel kinase analyses was performed as above.
A two-dimensional in-gel kinase assay was employed using myelin basic protein (MBP) as a target substrate to identify protein kinases that may be targeted by caspase-3 activity. C2C12 cells were treated with caspase-3 inhibitor and total protein lysates were isoelectrically focused in the first dimension and then separated in the second dimension using MBP as the crosslinked substrate. […] Similar results were seen using histone H1 as the in-gel substrate.

MST1 = MST1 immunoblot and immunoprecipitation/Histone H1 kinase assay from C2C12 lysates; conditions: for full-length MST1 protein level: C2C12, initial 24 h of low serum, Western blot
Protocol: as §1
Co-immunoprecipitation and kinase analyses. Immunoprecipitation was performed using 150-200 μg of total protein, incubated in modified-RIPA buffer at 4° C. for 16 h containing the respective antibody. Samples were mixed for 1 h with 25 μl of a 50% Protein G (Pharmacia). For co-immunoprecipitation, immunoprecipitates were washed in modified-RIPA buffer, boiled in 1× Lamelli buffer, separated by SDS-PAGE and Western blotted for immunoblot analyses. Immunoprecipitates used for kinase analyses were washed in modified-RIPA buffer and incubated in kinase buffer containing 20 mM MOPS (pH 7.2), 25 mM β-glycerophosphate, 5 mM EGTA, 1 mM Na3VO4 and 1 mM DTT supplemented with [γ-^32P]ATP and either recombinant MBP or recombinant Histone H1 (Upstate) as the target substrate. Samples were incubated for 30 min at 37° C. and then boiled in 1× Lamelli buffer. Following SDS-PAGE, gels were dried and phospho-incorporation was analyzed by autoradiography.
One kinase that was altered in activity co-migrated with a predicted pI (5.2) and molecular weight (36 kDa) consistent with Mammalian Sterile Twenty-like kinase (MST1). MST1 is a known caspase-3 activated kinase homologous to the yeast family of serine/threonine Ste20 kinases (Lechner, C., et al., (1996) Proc. Natl. Acad. Sci. USA 93, 43554359; Megeney, L. A., et al., (1996) Genes Dev 10, 1173-1183). […]

PAK2 = assay: Immunoprecipitation/kinase assay of PAK2 from neurospheres; conditions: inhibited vs control treated cultures, neurosphere differentiation
PAK1 = assay: Immunoprecipitation/kinase assay of PAK1 from neurospheres; conditions: differentiation media, vs DMSO
Protocol: Immunoprecipitation/Kinase activity assays: Immunoprecipitation/kinase analyses were performed as previously described (Fernando, P., et al., (2002) Proc Natl Acad Sci USA 99, 11025-11030). Cellular lysates from neurospheres were generated as described above. Antibodies against apoptotic signal-regulating kinase 1 (ASK1) (Upstate, USA), p21 activated kinase 1 (PAK1) (Cell Signaling Technologies, USA), and p38 MAPK (Santa Cruz, USA) were used to immunoprecipitate respective proteins. Samples were mixed with Protein G-sepharose beads for 1 h, washed and then mixed with kinase assay buffer containing myelin basic protein (MBP) and γ-32P[ATP]. Samples were reacted at 30° C. for 30 min and separated using SDS-PAGE. In some instances, samples were transferred to PVDF membrane following electrophoresis. To quantify kinase activities, MBP acrylamide bands were excised and solubilized in scintillation fluid prior to 32P-liquid scintillation analyses. In all cases, an activated recombinant mitogen activated protein kinase activated protein-2 (MAPKAP kinase-2) (Upstate, USA) was used as an internal control for liquid scintillation analyses.
Caspase 3, when processed to its active form, is capable of targeting and activating many protein kinases that mediate cellular differentiation. […]

Q: What does the source list for `COC(=O)CC[C@H](NC(=O)[C@H](CC(=O)OC)NC(=O)OCc1ccccc1)C(=O)N[C@H](C(=O)N[C@@H](CC(=O)OC)C(=O)CF)C(C)C` [z-DEVD.fmk]?
A: PARP cleavage products (PARP cleavage; listed as Z-DEVD.fmk): Comparable levels of PARP cleavage; PARP cleavage products (PARP cleavage; listed as z-DEVD): accumulated to a similar degree; activity of endogenous kinases (in-gel, MBP substrate) [1]: diminished level of activity; activity of endogenous kinases (in-gel, MBP substrate) ([1]; listed as caspase-3 inhibitor): significant loss of MBP-directed cellular kinase activities; full-length MST1 protein level (MST1): remained relatively unchanged; full-length MST1 protein level (MST1; listed as caspase-3 inhibitor): does not change; MST1 kinase activity (Histone H1 phosphorylation) (MST1; MST1 immunoprecipitated from C2C12 lysates, 12 h low serum media): no phosphorylation above basal levels was detectable; PAK2 activity (PAK2): did not observe differences in PAK2 activity; PAK1 activity (PAK1): reduced
